Measurements from ChEMBL document CHEMBL1145390, “Synthesis and preliminary biological characterization of new semisynthetic derivatives of ramoplanin” (J Med Chem, 2007).
Converted amounts (≈) assume the structure as drawn.

Experiments:
[1] = Toxicity assessed as hemolysis in erythrocytes at 90 mg/L; assay type: cell-based, Erythrocyte; settings: human, erythrocytes; read-out: Activity
Enterococcus faecium [2] = test: Antibacterial activity against vancomycin A-resistant Enterococcus faecium clinical isolate after 24 hrs by broth microdilution method; assay type: functional; settings: read-out: MIC
Streptococcus pyogenes = test: Antibacterial activity against Streptococcus pyogenes C203 after 24 hrs by broth microdilution method; assay type: functional; settings: C203, 24 h, read-out: MIC
Staphylococcus aureus [3] = test: Antibacterial activity against vancomycin-intermediate resistant Staphylococcus aureus clinical isolate after 24 hrs by broth microdilution method; assay type: functional
Escherichia coli = test: Antibacterial activity against Escherichia coli SKF-12140 after 24 hrs by broth microdilution method; assay type: functional; settings: read-out: MIC
Staphylococcus aureus [4] = test: Antibacterial activity against Staphylococcus aureus Smith after 24 hrs by broth microdilution method; assay type: functional; settings: read-out: MIC
[5] = Toxicity assessed as hemolysis in erythrocytes at 180 mg/L; assay type: cell-based, Erythrocyte; settings: human, erythrocytes; read-out: Activity
Staphylococcus aureus [6] = test: Antibacterial activity against methicillin-resistant and vancomycin-intermediate resistant Staphylococcus aureus clinical isolate after 24 hrs by broth microdilution method; assay type: functional; settings: read-out: MIC
Staphylococcus aureus [7] = test: Antibacterial activity against methicillin-resistant Staphylococcus aureus clinical isolate after 24 hrs by broth microdilution method; assay type: functional; settings: read-out: MIC
Enterococcus faecalis [8] = test: Antibacterial activity against vancomycin A-resistant Enterococcus faecalis after 24 hrs by broth microdilution method; assay type: functional; settings: read-out: MIC
Candida albicans = test: Antifungal activity against Candida albicans SKF-2270 after 24 hrs by broth microdilution method; assay type: functional; settings: read-out: MIC
Enterococcus faecalis [9] = test: Antibacterial activity against Enterococcus faecalis after 24 hrs by broth microdilution method; assay type: functional; settings: read-out: MIC
Enterococcus faecium [10] = test: Antibacterial activity against Enterococcus faecium after 24 hrs by broth microdilution method; assay type: functional; settings: read-out: MIC

Row | SMILES | hemolysis at 90 mg/L [1] [%] | MIC (Enterococcus faecium [2]) [µg/mL] | MIC (Streptococcus pyogenes) [µg/mL] | MIC (Staphylococcus aureus [3]) [µg/mL] | MIC (Escherichia coli) [µg/mL] | MIC (Staphylococcus aureus [4]) [µg/mL] | hemolysis at 180 mg/L [5] [%] | MIC (Staphylococcus aureus [6]) [µg/mL] | MIC (Staphylococcus aureus [7]) [µg/mL] | MIC (Enterococcus faecalis [8]) [µg/mL] | MIC (Candida albicans) [µg/mL] | MIC (Enterococcus faecalis [9]) [µg/mL] | MIC (Enterococcus faecium [10]) [µg/mL]
1 | CCCC(=O)N[C@@H](CC(N)=O)C(=O)NC[C@@H]1C(=O)N[C@H](c2ccc(O)cc2)C(=O)N[C@H](CCCN)C(=O)N[C@H](C(C)C)C(=O)N[C@@H](c2ccc(O)cc2)C(=O)N[C@H](c2ccc(O)cc2)C(=O)N[C@@H]([C@@H](C)O)C(=O)N[C@@H](Cc2ccccc2)C(=O)N[C@H](CCCN)C(=O)N[C@@H](c2ccc(O[C@H]3O[C@H](CO)[C@@H](O)[C@H](O)[C@@H]3O[C@H]3O[C@H](CO)[C@@H](O)[C@H](O)[C@@H]3O)cc2)C(=O)N[C@H]([C@@H](C)O)C(=O)N[C@@H](c2ccc(O)cc2)C(=O)NCC(=O)N[C@@H](CC(C)C)C(=O)N[C@H](C)C(=O)N[C@@H](c2ccc(O)c(Cl)c2)C(=O)O[C@@H]1C(N)=O | 0 | 16 (≈ 6.4 µM) | 0.5 (≈ 0.2 µM) | > 32 | > 32 | > 32 | 2 | > 32 | 32 (≈ 12.8 µM) | 16 (≈ 6.4 µM) | > 32 | 16 (≈ 6.4 µM) | 32 (≈ 12.8 µM)
2 | CC(C)C[C@@H]1NC(=O)CNC(=O)[C@H](c2ccc(O)cc2)NC(=O)[C@@H]([C@@H](C)O)NC(=O)[C@H](c2ccc(O[C@H]3O[C@H](CO)[C@@H](O)[C@H](O)[C@@H]3O[C@H]3O[C@H](CO)[C@@H](O)[C@H](O)[C@@H]3O)cc2)NC(=O)[C@@H](CCCN)NC(=O)[C@H](Cc2ccccc2)NC(=O)[C@H]([C@@H](C)O)NC(=O)[C@@H](c2ccc(O)cc2)NC(=O)[C@H](c2ccc(O)cc2)NC(=O)[C@@H](C(C)C)NC(=O)[C@@H](CCCN)NC(=O)[C@@H](c2ccc(O)cc2)NC(=O)[C@@H](CNC(=O)[C@H](CC(N)=O)NC(=O)c2ccc(O)cc2)[C@@H](C(N)=O)OC(=O)[C@H](c2ccc(O)c(Cl)c2)NC(=O)[C@@H](C)NC1=O | 0 | 32 (≈ 12.5 µM) | 0.5 (≈ 0.196 µM) | > 32 | > 32 | 32 (≈ 12.5 µM) | 4 | > 32 | 32 (≈ 12.5 µM) | 32 (≈ 12.5 µM) | > 32 | 16 (≈ 6.27 µM) | 32 (≈ 12.5 µM)
3 | CC(C)C[C@@H]1NC(=O)CNC(=O)[C@H](c2ccc(O)cc2)NC(=O)[C@@H]([C@@H](C)O)NC(=O)[C@H](c2ccc(O[C@H]3O[C@H](CO)[C@@H](O)[C@H](O)[C@@H]3O[C@H]3O[C@H](CO)[C@@H](O)[C@H](O)[C@@H]3O)cc2)NC(=O)[C@@H](CCCN)NC(=O)[C@H](Cc2ccccc2)NC(=O)[C@H]([C@@H](C)O)NC(=O)[C@@H](c2ccc(O)cc2)NC(=O)[C@H](c2ccc(O)cc2)NC(=O)[C@@H](C(C)C)NC(=O)[C@@H](CCCN)NC(=O)[C@@H](c2ccc(O)cc2)NC(=O)[C@@H](CNC(=O)[C@H](CC(N)=O)NC(=O)c2ccc3ccccc3c2)[C@@H](C(N)=O)OC(=O)[C@H](c2ccc(O)c(Cl)c2)NC(=O)[C@@H](C)NC1=O | 8 | 0.25 (≈ 0.0967 µM) | ≤ 0.03 | 1 (≈ 0.387 µM) | > 32 | 0.125 (≈ 0.0484 µM) | 40 | 2 (≈ 0.774 µM) | 0.25 (≈ 0.0967 µM) | 0.25 (≈ 0.0967 µM) | > 32 | 0.125 (≈ 0.0484 µM) | 0.25 (≈ 0.0967 µM)
4 | CC(C)C[C@@H]1NC(=O)CNC(=O)[C@H](c2ccc(O)cc2)NC(=O)[C@@H]([C@@H](C)O)NC(=O)[C@H](c2ccc(O[C@H]3O[C@H](CO)[C@@H](O)[C@H](O)[C@@H]3O[C@H]3O[C@H](CO)[C@@H](O)[C@H](O)[C@@H]3O)cc2)NC(=O)[C@@H](CCCN)NC(=O)[C@H](Cc2ccccc2)NC(=O)[C@H]([C@@H](C)O)NC(=O)[C@@H](c2ccc(O)cc2)NC(=O)[C@H](c2ccc(O)cc2)NC(=O)[C@@H](C(C)C)NC(=O)[C@@H](CCCN)NC(=O)[C@@H](c2ccc(O)cc2)NC(=O)[C@@H](CNC(=O)[C@H](CC(N)=O)NC(=O)Cc2ccc3ccccc3c2)[C@@H](C(N)=O)OC(=O)[C@H](c2ccc(O)c(Cl)c2)NC(=O)[C@@H](C)NC1=O.Cl | 24 | 0.25 | ≤ 0.03 | 1 | > 32 | 0.25 | 59 | 1 | 0.25 | 0.125 | > 32 | 0.125 | 0.25
5 | CC(C)C[C@@H]1NC(=O)CNC(=O)[C@H](c2ccc(O)cc2)NC(=O)[C@@H]([C@@H](C)O)NC(=O)[C@H](c2ccc(O[C@H]3O[C@H](CO)[C@@H](O)[C@H](O)[C@@H]3O[C@H]3O[C@H](CO)[C@@H](O)[C@H](O)[C@@H]3O)cc2)NC(=O)[C@@H](CCCN)NC(=O)[C@H](Cc2ccccc2)NC(=O)[C@H]([C@@H](C)O)NC(=O)[C@@H](c2ccc(O)cc2)NC(=O)[C@H](c2ccc(O)cc2)NC(=O)[C@@H](C(C)C)NC(=O)[C@@H](CCCN)NC(=O)[C@@H](c2ccc(O)cc2)NC(=O)[C@@H](CNC(=O)[C@H](CC(N)=O)NC(=O)c2ccccc2)[C@@H](C(N)=O)OC(=O)[C@H](c2ccc(O)c(Cl)c2)NC(=O)[C@@H](C)NC1=O | 0 | 4 (≈ 1.58 µM) | 0.125 (≈ 0.0493 µM) | 32 (≈ 12.6 µM) | > 32 | 8 (≈ 3.16 µM) | 4 | > 32 | 8 (≈ 3.16 µM) | 4 (≈ 1.58 µM) | > 32 | 4 (≈ 1.58 µM) | 8 (≈ 3.16 µM)
6 | CCCCCC(=O)N[C@@H](CC(N)=O)C(=O)NC[C@@H]1C(=O)N[C@H](c2ccc(O)cc2)C(=O)N[C@H](CCCN)C(=O)N[C@H](C(C)C)C(=O)N[C@@H](c2ccc(O)cc2)C(=O)N[C@H](c2ccc(O)cc2)C(=O)N[C@@H]([C@@H](C)O)C(=O)N[C@@H](Cc2ccccc2)C(=O)N[C@H](CCCN)C(=O)N[C@@H](c2ccc(O[C@H]3O[C@H](CO)[C@@H](O)[C@H](O)[C@@H]3O[C@H]3O[C@H](CO)[C@@H](O)[C@H](O)[C@@H]3O)cc2)C(=O)N[C@H]([C@@H](C)O)C(=O)N[C@@H](c2ccc(O)cc2)C(=O)NCC(=O)N[C@@H](CC(C)C)C(=O)N[C@H](C)C(=O)NC(c2ccc(O)c(Cl)c2)C(=O)O[C@@H]1C(N)=O (some centres undefined) | 0 | 4 (≈ 1.58 µM) | 0.125 (≈ 0.0494 µM) | 16 (≈ 6.33 µM) | > 32 | 4 (≈ 1.58 µM) | 8 | 32 (≈ 12.7 µM) | 4 (≈ 1.58 µM) | 2 (≈ 0.791 µM) | > 32 | 2 (≈ 0.791 µM) | 4 (≈ 1.58 µM)
7 | CC(C)C[C@@H]1NC(=O)CNC(=O)[C@H](c2ccc(O)cc2)NC(=O)[C@@H]([C@@H](C)O)NC(=O)[C@H](c2ccc(O[C@H]3O[C@H](CO)[C@@H](O)[C@H](O)[C@@H]3O[C@H]3O[C@H](CO)[C@@H](O)[C@H](O)[C@@H]3O)cc2)NC(=O)[C@@H](CCCN)NC(=O)[C@H](Cc2ccccc2)NC(=O)[C@H]([C@@H](C)O)NC(=O)[C@@H](c2ccc(O)cc2)NC(=O)[C@H](c2ccc(O)cc2)NC(=O)[C@@H](C(C)C)NC(=O)[C@@H](CCCN)NC(=O)[C@@H](c2ccc(O)cc2)NC(=O)[C@@H](CNC(=O)[C@H](CC(N)=O)NC(=O)COc2ccccc2)[C@@H](C(N)=O)OC(=O)[C@H](c2ccc(O)c(Cl)c2)NC(=O)[C@@H](C)NC1=O | 0 | 4 (≈ 1.56 µM) | 0.06 (≈ 0.0234 µM) | 16 (≈ 6.24 µM) | > 32 | 4 (≈ 1.56 µM) | 0 | 32 (≈ 12.5 µM) | 8 (≈ 3.12 µM) | 4 (≈ 1.56 µM) | > 32 | 8 (≈ 3.12 µM) | 4 (≈ 1.56 µM)
8 | CCCCc1ccc(C(=O)N[C@@H](CC(N)=O)C(=O)NC[C@@H]2C(=O)N[C@H](c3ccc(O)cc3)C(=O)N[C@H](CCCN)C(=O)N[C@H](C(C)C)C(=O)N[C@@H](c3ccc(O)cc3)C(=O)N[C@H](c3ccc(O)cc3)C(=O)N[C@@H]([C@@H](C)O)C(=O)N[C@@H](Cc3ccccc3)C(=O)N[C@H](CCCN)C(=O)N[C@@H](c3ccc(O[C@H]4O[C@H](CO)[C@@H](O)[C@H](O)[C@@H]4O[C@H]4O[C@H](CO)[C@@H](O)[C@H](O)[C@@H]4O)cc3)C(=O)N[C@H]([C@@H](C)O)C(=O)N[C@@H](c3ccc(O)cc3)C(=O)NCC(=O)N[C@@H](CC(C)C)C(=O)N[C@H](C)C(=O)N[C@@H](c3ccc(O)c(Cl)c3)C(=O)O[C@@H]2C(N)=O)cc1 | 47 | 0.25 (≈ 0.0965 µM) | < 0.03 | 2 (≈ 0.772 µM) | > 32 | 0.25 (≈ 0.0965 µM) | 91 | 4 (≈ 1.54 µM) | 0.5 (≈ 0.193 µM) | 0.25 (≈ 0.0965 µM) | > 32 | 0.25 (≈ 0.0965 µM) | 0.25 (≈ 0.0965 µM)
